According to patent US10137199B2, “Thiolated hyaluronan-based hydrogels cross-linked using oxidized glutathione” (BioTime, Inc., priority 2013, dated 2018):

Key:
ADSC = assay: Cell attachment on peptide functionalized CMHA/GSSG hydrogels, ADSC; assay type: cell-based, human; settings: 15,000 cells/well, attach overnight, calcein AM
Procedure: After N-terminal maleimido-tagged peptides (Anaspec, Inc. Fremont, CCA) were resuspended in 1×PBS, 1 volume 10 mM peptide was mixed with nine volumes CMHA-S, and reaction was allowed to occur at room temperature in the dark, overnight. GSSG was added to a final concentration of 4 mM (brings peptide final concentration to 0.88 mM) and the mixture allowed to form gels in a 48-well multiwell plate. Unreacted peptides were removed by three washes of at least five volumes 1×PBS at 75 rpm 37° C., for at least 4 hr each. ADSC or BM-MSC in DMEM/10% FBS were then added to each well (15,000 cells/well in a 48 well plate) and allowed to attach overnight. On the final day, the cells were imaged by fluorescence using calcein AM stain.

[1] = Gel formation of CMHA-S and Gelin-S with disulfide containing small molecules; assay type: physicochemical; settings: thiolated biopolymers CMHA-S and Gelin-S
Procedure: Initially we tested whether GSSG would be a suitable reactant for a thiol-disulfide exchange reaction with thiolated biopolymers CMHA-S and Gelin-S to form a two-component (CMHA/Gelin/GSSG) gel with no additional crosslinking molecule (FIG. 1 where R′—SH represents Gelin-S). A gel formed in approximately three minutes using a final concentration of 4 mM GSSG and 0.4% w/v CMHA-S and 0.4% w/v Gelin-S (Sample 4, Table 1).

Compound	ADSC attachment (ADSC)	gel formation [1]
CRGDS	poor robustness	
N[C@@H](CS)C(=O)O [cysteine]		did not cause gel formation
OC1CSSCC1O (stereo not drawn) [oxidized DT]		did not cause gel formation
